This passage reports IC50 results from ChEMBL document CHEMBL5042477, “Potent Cyclic Peptide Inhibitors of FXIIa Discovered by mRNA Display with Genetic Code Reprogramming” (J Med Chem, 2021).

Where a SMILES comes first, the peptide text is derived from it. Bridges are numbered along the chain shown (N, C = ends).

The experiment deals with T1, Coagulation factor XII (Homo sapiens, UniProt P00748).
T1 sequence (P00748 whole entry): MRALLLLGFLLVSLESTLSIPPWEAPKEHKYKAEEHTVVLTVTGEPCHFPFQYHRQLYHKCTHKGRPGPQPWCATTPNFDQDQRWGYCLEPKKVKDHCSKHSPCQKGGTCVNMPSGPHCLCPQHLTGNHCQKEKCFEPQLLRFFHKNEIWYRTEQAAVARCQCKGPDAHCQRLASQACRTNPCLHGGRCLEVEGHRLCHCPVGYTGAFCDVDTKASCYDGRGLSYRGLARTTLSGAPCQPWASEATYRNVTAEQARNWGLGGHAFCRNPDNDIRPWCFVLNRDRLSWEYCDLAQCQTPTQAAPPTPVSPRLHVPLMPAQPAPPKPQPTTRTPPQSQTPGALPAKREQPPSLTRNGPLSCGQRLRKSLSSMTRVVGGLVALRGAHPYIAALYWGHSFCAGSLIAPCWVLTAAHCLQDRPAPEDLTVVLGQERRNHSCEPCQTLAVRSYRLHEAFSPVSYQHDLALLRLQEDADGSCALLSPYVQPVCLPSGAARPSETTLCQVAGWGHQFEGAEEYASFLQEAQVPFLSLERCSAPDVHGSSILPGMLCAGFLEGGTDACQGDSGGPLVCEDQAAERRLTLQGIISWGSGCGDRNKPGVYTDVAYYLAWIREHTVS
As to the kind of experiment: Inhibition of human factor 12a using H-D-Pro-Phe-Arg-p-nitroanilide as chromogenic substrate assessed as liberation of p-nitroaniline measured every 5 mins for 60 min by multimode plate reader analysis.
As to `CC(C)C[C@@H]1NC(=O)[C@H]([C@@H](C)O)NC(=O)[C@H](Cc2ccccc2)NC(=O)[C@@H](CCCNC(=N)N)NC(=O)[C@@H](CC(C)C)NC(=O)[C@@H](Cc2ccc(O)cc2)NC(=O)CSC[C@@H](C(N)=O)NC1=O`, the IC50 was 3.8 µM. As to `CC(C)C[C@@H]1NC(=O)[C@H](C)NC(=O)CSC[C@@H](C(N)=O)NC(=O)CNC(=O)CNC(=O)[C@H](CCCNC(=N)N)NC(=O)[C@H](CC(=O)O)NC(=O)[C@H](CCCCN)NC(=O)[C@@H]2CCCN2C(=O)[C@H](CCCNC(=N)N)NC(=O)[C@H](Cc2ccccc2)NC(=O)[C@H](CCCNC(=N)N)NC1=O` ({CH2CO}-ALRFRPKDRGGC-NH2; thioether N-12), the IC50 amounted to 500 µM. Under `CC(C)C[C@@H]1NC(=O)[C@H](C)NC(=O)CSC[C@@H](C(N)=O)NC(=O)CNC(=O)CNC(=O)[C@H](CCC(N)=O)NC(=O)[C@H](CC(N)=O)NC(=O)[C@H]([C@@H](C)O)NC(=O)[C@@H]2CCCN2C(=O)[C@H](CCCCN)NC(=O)[C@H](CC(C)C)NC(=O)[C@H](CCCNC(=N)N)NC1=O` ({CH2CO}-ALRLKPTNQGGC-NH2; thioether N-12) stands 290 µM; under `CC(C)C[C@@H]1NC(=O)[C@H](Cc2ccccc2)NC(=O)CSC[C@@H](C(N)=O)NC(=O)CNC(=O)CNC(=O)[C@H](CCCNC(=N)N)NC(=O)[C@H](CC(=O)O)NC(=O)[C@H](CCCCN)NC(=O)[C@@H]2CCCN2C(=O)[C@H](CCCNC(=N)N)NC(=O)[C@H](Cc2ccccc2)NC(=O)[C@H](CCCNC(=N)N)NC1=O` ({CH2CO}-FLRFRPKDRGGC-NH2; thioether N-12), 0.48 µM.

With `CC(C)C[C@@H]1NC(=O)[C@H](C(C)C)NC(=O)CSC[C@@H](C(N)=O)NC(=O)CNC(=O)CNC(=O)[C@H](CCCNC(=N)N)NC(=O)[C@H](CC(=O)O)NC(=O)[C@H](CCCCN)NC(=O)[C@@H]2CCCN2C(=O)[C@H](CCCNC(=N)N)NC(=O)[C@H](Cc2ccccc2)NC(=O)[C@H](CCCNC(=N)N)NC1=O` ({CH2CO}-VLRFRPKDRGGC-NH2; thioether N-12), the IC50 was found to be 210 µM.

On to `COc1ccc(C[C@@H]2NC(=O)CSC[C@@H](C(N)=O)NC(=O)CNC(=O)CNC(=O)[C@H](CCCNC(=N)N)NC(=O)[C@H](CC(=O)O)NC(=O)[C@H](CCCCN)NC(=O)[C@@H]3CCCN3C(=O)[C@H](CCCNC(=N)N)NC(=O)[C@H](Cc3ccccc3)NC(=O)[C@H](CCCNC(=N)N)NC(=O)[C@H](CC(C)C)NC2=O)cc1` ({CH2CO}-Y(Me)LRFRPKDRGGC-NH2; thioether N-12), for which the IC50 amounted to 0.53 µM. The same measure for `C[C@@H]1NC(=O)[C@H](Cc2ccc(O)cc2)NC(=O)CSC[C@@H](C(N)=O)NC(=O)CNC(=O)CNC(=O)[C@H](CCCNC(=N)N)NC(=O)[C@H](CC(=O)O)NC(=O)[C@H](CCCCN)NC(=O)[C@@H]2CCCN2C(=O)[C@H](CCCNC(=N)N)NC(=O)[C@H](Cc2ccccc2)NC(=O)[C@H](CCCNC(=N)N)NC1=O` ({CH2CO}-YARFRPKDRGGC-NH2; thioether N-12): 290 µM. The same measure for `CC(C)C[C@@H]1NC(=O)[C@H](CCCNC(=N)N)NC(=O)[C@H](C)NC(=O)[C@H](Cc2ccc(O)cc2)NC(=O)CSC[C@@H](C(N)=O)NC(=O)CNC(=O)CNC(=O)[C@H](CCC(N)=O)NC(=O)[C@H](CC(N)=O)NC(=O)[C@H]([C@@H](C)O)NC(=O)[C@@H]2CCCN2C(=O)[C@H](CCCCN)NC1=O` ({CH2CO}-YARLKPTNQGGC-NH2; thioether N-12): 410 µM.

Regarding `CC(C)C[C@@H]1NC(=O)[C@H](Cc2ccc(O)cc2)NC(=O)CSC[C@@H](C(N)=O)NC(=O)CNC(=O)CNC(=O)[C@H](CCCNC(=N)N)NC(=O)[C@H](CC(=O)O)NC(=O)[C@H](CCCCN)NC(=O)[C@@H]2CCCN2C(=O)[C@H](CCCNC(=N)N)NC(=O)[C@H](Cc2ccccc2)NC(=O)[C@H](C)NC1=O` ({CH2CO}-YLAFRPKDRGGC-NH2; thioether N-12), the IC50 stood at 110 µM. The same measure for `CC(C)C[C@@H]1NC(=O)[C@H](C)NC(=O)[C@H](CC(C)C)NC(=O)[C@H](Cc2ccc(O)cc2)NC(=O)CSC[C@@H](C(N)=O)NC(=O)CNC(=O)CNC(=O)[C@H](CCC(N)=O)NC(=O)[C@H](CC(N)=O)NC(=O)[C@H]([C@@H](C)O)NC(=O)[C@@H]2CCCN2C(=O)[C@H](CCCCN)NC1=O` ({CH2CO}-YLALKPTNQGGC-NH2; thioether N-12): 850 µM; for `CC(C)C[C@@H]1NC(=O)[C@H](Cc2ccc(O)cc2)NC(=O)CSC[C@@H](C(N)=O)NC(=O)CNC(=O)CNC(=O)[C@H](CCCNC(=N)N)NC(=O)[C@H](CC(=O)O)NC(=O)[C@H](CCCCN)NC(=O)[C@@H]2CCCN2C(=O)[C@H](CCCNC(=N)N)NC(=O)[C@H](Cc2ccccc2)NC(=O)[C@H](CCCCN)NC1=O` ({CH2CO}-YLKFRPKDRGGC-NH2; thioether N-12): 0.3 µM; for `CC(C)C[C@@H]1NC(=O)[C@H](Cc2ccc(O)cc2)NC(=O)CSC[C@@H](C(N)=O)NC(=O)CNC(=O)CNC(=O)[C@H](CCC(N)=O)NC(=O)[C@H](CC(N)=O)NC(=O)[C@H]([C@@H](C)O)NC(=O)[C@@H]2CCCN2C(=O)[C@H](CCCCN)NC(=O)[C@H](C)NC(=O)[C@H](CCCNC(=N)N)NC1=O` ({CH2CO}-YLRAKPTNQGGC-NH2; thioether N-12): 13 µM. Under `CC(C)C[C@@H]1NC(=O)[C@H](Cc2ccc(O)cc2)NC(=O)CSC[C@@H](C(N)=O)NC(=O)CNC(=O)CNC(=O)[C@H](CCCNC(=N)N)NC(=O)[C@H](CC(=O)O)NC(=O)[C@H](CCCCN)NC(=O)[C@@H]2CCCN2C(=O)[C@H](CCCNC(=N)N)NC(=O)[C@H](C)NC(=O)[C@H](CCCNC(=N)N)NC1=O` ({CH2CO}-YLRARPKDRGGC-NH2; thioether N-12) stands 5.1 µM.

Regarding `CC(C)C[C@@H]1NC(=O)[C@H](Cc2ccc(O)cc2)NC(=O)CSC[C@@H](C(N)=O)NC(=O)CNC(=O)CNC(=O)[C@H](CCCNC(=N)N)NC(=O)[C@H](CC(=O)O)NC(=O)[C@H](CCCCN)NC(=O)[C@@H]2CCCN2C(=O)[C@H](C)NC(=O)[C@H](Cc2ccccc2)NC(=O)[C@H](CCCNC(=N)N)NC1=O` ({CH2CO}-YLRFAPKDRGGC-NH2; thioether N-12), the concentration for half-maximal inhibition (IC50) was determined as 79 µM. Under `CC(C)C[C@@H]1NC(=O)[C@H](Cc2ccc(O)cc2)NC(=O)CSC[C@@H](C(N)=O)NC(=O)CNC(=O)CNC(=O)[C@H](CCCNC(=N)N)NC(=O)[C@H](CC(=O)O)NC(=O)[C@H](CCCCN)NC(=O)[C@@H]2CCCN2C(=O)[C@H](CCCCN)NC(=O)[C@H](Cc2ccccc2)NC(=O)[C@H](CCCNC(=N)N)NC1=O` ({CH2CO}-YLRFKPKDRGGC-NH2; thioether N-12) stands 0.065 µM; under `CC(C)C[C@@H]1NC(=O)[C@H](Cc2ccc(O)cc2)NC(=O)CSC[C@@H](C(N)=O)NC(=O)CNC(=O)CNC(=O)[C@H](CCCNC(=N)N)NC(=O)[C@H](CC(=O)O)NC(=O)[C@H](CCCCN)NC(=O)[C@H](C)NC(=O)[C@H](CCCNC(=N)N)NC(=O)[C@H](Cc2ccccc2)NC(=O)[C@H](CCCNC(=N)N)NC1=O` ({CH2CO}-YLRFRAKDRGGC-NH2; thioether N-12), 0.26 µM; under `CC(C)C[C@@H]1NC(=O)[C@H](Cc2ccc(O)cc2)NC(=O)CSC[C@@H](C(N)=O)NC(=O)[C@H](CCCNC(=N)N)NC(=O)[C@H](Cc2ccccc2)NC(=O)[C@H](CCCNC(=N)N)NC1=O` ({CH2CO}-YLRFRC-NH2; thioether N-6), 200 µM. The same measure for `CC(C)C[C@@H]1NC(=O)[C@H](Cc2ccc(O)cc2)NC(=O)CSC[C@@H](C(N)=O)NC(=O)CNC(=O)CNC(=O)[C@H](CCCNC(=N)N)NC(=O)[C@H](CC(=O)O)NC(=O)[C@H](C)NC(=O)[C@@H]2CCCN2C(=O)[C@H](CCCNC(=N)N)NC(=O)[C@H](Cc2ccccc2)NC(=O)[C@H](CCCNC(=N)N)NC1=O` ({CH2CO}-YLRFRPADRGGC-NH2; thioether N-12): 0.4 µM; for `CC(C)C[C@@H]1NC(=O)[C@H](Cc2ccc(O)cc2)NC(=O)CSC[C@@H](C(N)=O)NC(=O)CNC(=O)CNC(=O)[C@H](CCCNC(=N)N)NC(=O)[C@H](C)NC(=O)[C@H](CCCCN)NC(=O)[C@@H]2CCCN2C(=O)[C@H](CCCNC(=N)N)NC(=O)[C@H](Cc2ccccc2)NC(=O)[C@H](CCCNC(=N)N)NC1=O` ({CH2CO}-YLRFRPKARGGC-NH2; thioether N-12): 0.05 µM. The same measure for `CC(C)C[C@@H]1NC(=O)[C@H](Cc2ccc(O)cc2)NC(=O)CSC[C@@H](C(N)=O)NC(=O)CNC(=O)CNC(=O)[C@H](C)NC(=O)[C@H](CC(=O)O)NC(=O)[C@H](CCCCN)NC(=O)[C@@H]2CCCN2C(=O)[C@H](CCCNC(=N)N)NC(=O)[C@H](Cc2ccccc2)NC(=O)[C@H](CCCNC(=N)N)NC1=O` ({CH2CO}-YLRFRPKDAGGC-NH2; thioether N-12): 0.65 µM; for `CC(C)C[C@@H]1NC(=O)[C@H](Cc2ccc(O)cc2)NC(=O)CSC[C@@H](C(N)=O)NC(=O)CNC(=O)[C@H](C)NC(=O)[C@H](CCCNC(=N)N)NC(=O)[C@H](CC(=O)O)NC(=O)[C@H](CCCCN)NC(=O)[C@@H]2CCCN2C(=O)[C@H](CCCNC(=N)N)NC(=O)[C@H](Cc2ccccc2)NC(=O)[C@H](CCCNC(=N)N)NC1=O` ({CH2CO}-YLRFRPKDRAGC-NH2; thioether N-12): 27 µM. Consider `CC(C)C[C@@H]1NC(=O)[C@H](Cc2ccc(O)cc2)NC(=O)CSC[C@@H](C(N)=O)NC(=O)[C@H](C)NC(=O)CNC(=O)[C@H](CCCNC(=N)N)NC(=O)[C@H](CC(=O)O)NC(=O)[C@H](CCCCN)NC(=O)[C@@H]2CCCN2C(=O)[C@H](CCCNC(=N)N)NC(=O)[C@H](Cc2ccccc2)NC(=O)[C@H](CCCNC(=N)N)NC1=O` ({CH2CO}-YLRFRPKDRGAC-NH2; thioether N-12), for which the half-maximal inhibitory concentration (IC50) amounted to 15 µM.
